Assay results published in US7214707B2, “Dimeric compounds and their use as anti-viral agents” (Biota Scientific Management Pty Ltd., priority 2001, dated 2007).
In brackets after ≈: the same amount, converted by molar mass. Counter-ions that a name gives are not always drawn. Like-named read-outs stand apart in the source and are kept apart here.

What was measured:
[1] = system: A/New Caledonia/20/99 BVLV008 (H1N1); test: Plaque reduction assay (PRA) in MDCK cells; format: cell-based; conditions: Influenza A virus, read-out: EC50 PRA A/New
B/Hong Kong/5/72 BVLV012 = test: Plaque reduction assay (PRA) in MDCK cells; format: cell-based, influenza virus; conditions: read-out: EC50 PRA B/HongK
[2] = system: A/Panama/2007/99 BVLV008 (H3N2); test: Plaque reduction assay (PRA) in MDCK cells; format: cell-based; conditions: Influenza A virus, read-out: EC50 PRA A/Pan
[3] = system: A/Victoria/3/75 BVLV017 (H3N2); test: Plaque reduction assay (PRA) in MDCK cells; format: cell-based; conditions: Influenza A virus, read-out: EC50 PRA A/Vic
[4] = Rat lung retention after intra-tracheal dosing (long duration of action); conditions: in vivo
Protocol: Rodents are anaesthetised and dosed with compound of interest by the intra-tracheal route at a dose volume of 0.8 ml/kg. The rodent is then held in the vertical position until full recovery is achieved. […] Any analytical method suitable for detection of this type of compound may be used. The time at which levels of compound fall below the sensitivity of the analytical techniques identified will determine the residency time of the compound in lung tissue.
Please note that all experiments included a co-dosed internal standard, namely compound 3 of International Patent Publication No. WO 02/20514, to permit comparison. The data are expressed as a ratio with respect to this compound, the structure of which is shown below.
The data for compound A is included for comparison purposes.

B/Harbin/7/95 BVLV008 = test: Plaque reduction assay (PRA) in MDCK cells; format: cell-based, influenza virus; conditions: read-out: EC50 PRA B/Harb
A/WSN/33 BVLV09 (H1N1) = test: Plaque reduction assay (PRA) in MDCK cells; format: cell-based; conditions: Influenza A virus, read-out: EC50 PRA A/WSN
[5] = system: A/Bayem/7/95 BVL006 (H1N1); test: Plaque reduction assay (PRA) in MDCK cells; format: cell-based; conditions: Influenza A virus, read-out: EC50 PRA A/Bay
[6] = system: A/Sydney/5/97 BVLV015 (H3N2); test: Plaque reduction assay (PRA) in MDCK cells; format: cell-based; conditions: Influenza A virus, read-out: EC50 PRA A/Syd
Influenza B/Harbin/7/95 = test: Cytopathic effect (CPE) assay in MDCK cells, MTT readout; format: cell-based, influenza virus; conditions: concentration inhibiting CPE by 50%, up to 72 hours
Influenza A/Sydney/5/97 = test: as above; format: cell-based, influenza virus; conditions: concentration inhibiting CPE by 50%, up to 72 hours
[7] = system: B/Yamanashi/166/98 BVLV007; test: Plaque reduction assay (PRA) in MDCK cells; format: cell-based; conditions: influenza B virus, read-out: EC50 PRA B/Yam, reduces plaque numbers by 50%, MDCK cells
[8] = reduces plaque numbers by 50%, MDCK cells

| Compound | EC50 [1, 8] [ng/mL] | EC50 (B/Hong Kong/5/72 BVLV012) [µg/mL] | EC50 [3, 8] [ng/mL] | Ratio Mean (lung) (cmpd)/PCT AU01/01128 compound 3 ([4]; 0.1 mg/kg, 48 h) | Ratio Mean (lung) (cmpd)/PCT AU01/01128 compound 3 ([4]; 0.1 mg/kg, 168 h) | ID50 B/Harbin/7/95 (Influenza B/Harbin/7/95) [ng/mL] | ID50 A/Sydney/5/97 (Influenza A/Sydney/5/97) [µg/mL] | EC50 [7] [ng/mL] | also measured |
| --- | --- | --- | --- | --- | --- | --- | --- | --- | --- |
| NC12CC3CC(CC(C3)C1)C2 [Amantadine] | 11 (≈ 72.7 nM) | > 10 | 220 (≈ 1450 nM) | – | – | – | – | – | EC50 [2, 8]: 157 ng/mL (≈ 1040 nM) |
| CC(=O)N[C@H]1[C@H]([C@H](O)[C@H](O)CO)OC(C(=O)O)=C[C@@H]1N=C(N)N [Compound A, 4-guanidino-2-deoxy-2,3-dehydro-N-acetylneuraminic acid, reference compound] | – | 0.021 (≈ 63.2 nM) | – | 0.26 | 0.08 | – | – | – | EC50 (B/Harbin/7/95 BVLV008): 0.19 ng/mL (≈ 0.572 nM); EC50 (A/WSN/33 BVLV09 (H1N1)): 0.056 µg/mL (≈ 169 nM); EC50 [1]: 0.27 ng/mL (≈ 0.812 nM); EC50 ([5]; H1N1, MDCK): 0.035 µg/mL (≈ 105 nM); EC50 [2]: 2.7 ng/mL (≈ 8.12 nM); EC50 [3]: 5.5 ng/mL (≈ 16.6 nM); EC50 [6]: 2.4 ng/mL (≈ 7.22 nM) |
| CC(=O)N[C@H]1[C@H]([C@H](OC(=O)NCCc2cccc(CCNC(=O)O[C@@H]([C@@H]3OC(C(=O)O)=C[C@H](NC(=N)N)[C@H]3NC(C)=O)[C@H](O)CO)c2)[C@H](O)CO)OC(C(=O)O)=C[C@@H]1NC(=N)N [Example 1, (2R,3R,4S)-3-(acetylamino)-2-{(1R,2R)-1-[({[2-(3-{2-[({[(1R,2R)-1-((2R,3R,4S)-3-(acetylamino)-4-{[amino(imino)methyl]amino}-6-carboxy-3,4-dihydro-2H-pyran-2-yl)-2,3-dihydroxypropyl]oxy}carbonyl)amino]ethyl}phenyl)ethyl]amino}carbonyl)oxy]-2,3-dihydroxypropyl}-4-{[amino(imino)methyl]amino}-3,4-dihydro-2H-pyran-6-carboxylic Acid] | – | – | – | – | – | 0.2 (≈ 0.227 nM) | 0.084 (≈ 95.4 nM) | – | – |
| CC(=O)N[C@H]1[C@H]([C@H](OC(=O)NCCc2ccc(CCNC(=O)O[C@@H]([C@@H]3OC(C(=O)O)=C[C@H](NC(=N)N)[C@H]3NC(C)=O)[C@H](O)CO)cc2)[C@H](O)CO)OC(C(=O)O)=C[C@@H]1NC(=N)N [Example 2, (2R,3R,4S)-3-(acetylamino)-2-{(1R,2R)-1-[({[2-(4-{2-[({[(1R,2R)-1-((2R,3R,4S)-3-(acetylamino)-4-{[amino(imino)methyl]amino}-6-carboxy-3,4-dihydro-2H-pyran-2-yl)-2,3-dihydroxypropyl]oxy}carbonyl)amino]ethyl}phenyl)ethyl]amino}carbonyl)oxy]-2,3-dihydroxypropyl}-4-{[amino(imino)methyl]amino}-3,4-dihydro-2H-pyran-6-carboxylic Acid] | – | – | – | 0.44 | 0.34 | – | – | – | concentration at 48 h ([4]; 0.1 mg/kg, (cmpd) ng/g): 740 ng/g; concentration at 48 h ([4]; 0.1 mg/kg, Mean (cmpd) ng/g): 603 ng/g; concentration at 168 h ([4]; 0.1 mg/kg, Mean (cmpd) ng/g): 259 ng/g |
| CC(=O)N[C@H]1[C@H]([C@H](OC(=O)NCc2ccc(S(=O)(=O)c3ccc(CNC(=O)O[C@@H]([C@@H]4OC(C(=O)O)=C[C@H](NC(=N)N)[C@H]4NC(C)=O)[C@H](O)CO)cc3)cc2)[C@H](O)CO)OC(C(=O)O)=C[C@@H]1NC(=N)N [Example 4, (2R,3R,4S)-3-(acetylamino)-2-[(1R,2R)-1-({[({4-[(4-{[({[(1R,2R)-1((2R,3R,4S)-3-(acetylamino)-4-{[amino(imino)methyl]amino}-6-carboxy-3,4-dihydro-2H-pyran-2-yl)-2,3-dihydroxypropyl]oxy}-carbonyl)amino]methyl}phenyl)sulfonyl]phenyl}methyl)amino]carbonyl}oxy)-2,3-dihydroxypropyl]-4-{[amino(imino)methyl]amino}-3,4-dihydro-2H-pyran-6-carboxylic Acid] | – | – | – | – | – | <0.05 | >0.100 | – | – |
| CC(=O)N[C@H]1[C@H]([C@H](OC(=O)Nc2ccc(Cc3ccc(NC(=O)O[C@@H]([C@@H]4OC(C(=O)O)=C[C@H](NC(=N)N)[C@H]4NC(C)=O)[C@H](O)CO)cc3)cc2)[C@H](O)CO)OC(C(=O)O)=C[C@@H]1NC(=N)N [Example 8, (2R,3R,4S)-3-(acetylamino)-2-{(1R,2R)-1-[({[4-({4-[({[(1R,2R)-1-((2R,3R,4S)-3-(acetylamino)-4-{[amino(imino)methyl]amino}-6-carboxy-3,4-dihydro-2H-pyran-2-yl)-2,3-dihydroxypropyl]oxy}carbonyl)amino]phenyl}methyl)phenyl]amino}carbonyl)oxy]-2,3-dihydroxypropyl}-4-{[amino(imino)methyl]amino}-3,4-dihydro-2H-pyran-6-carboxylic Acid bis TFA Salt] | 0.0001 | – | 0.003 | – | – | <0.05 | 0.013 | 0.02 | Ratio Mean (lung) (cmpd)/PCT AU01/01128 compound 3 ([4]; 0.4 mg/kg, 48 h): 1.05; (lung) ([4]; 0.4 mg/kg, 168 h): 3571 ng/g; Ratio Mean (lung) (cmpd)/PCT AU01/01128 compound 3 ([4]; 0.4 mg/kg, 168 h): 2.28; concentration at 48 h ([4]; 0.4 mg/kg, (lung) ng/g): 3800 ng/g; concentration at 168 h ([4]; 0.4 mg/kg, (lung) ng/g): 3230 ng/g; concentration at 48 h ([4]; 0.4 mg/kg, Mean (lung) ng/g): 3250 ng/g; concentration at 168 h ([4]; 0.4 mg/kg, Mean (lung) ng/g): 3400 ng/g; EC50 (B/Harbin/7/95 BVLV008): < 0.0001 ng/mL |
| CC(=O)N[C@H]1[C@H]([C@H](OC(=O)NCc2ccc(-c3ccc(CNC(=O)O[C@@H]([C@@H]4OC(C(=O)O)=C[C@H](NC(=N)N)[C@H]4NC(C)=O)[C@H](O)CO)cc3)cc2)[C@H](O)CO)OC(C(=O)O)=C[C@@H]1NC(=N)N [Example 9, (2R,3R,4S)-3-(acetylamino)-2-{(1R,2R)-1-[({[(4′-{[({[(1R,2R)-1-((2R,3R,4S)-3-(acetylamino)-4-{[amino(imino)methyl]amino}-6-carboxy-3,4-dihydro-2H-pyran-2-yl)-2,3-dihydroxypropyl]oxy}carbonyl)amino]methyl}-1,1′-biphenyl-4-yl)methyl]amino}carbonyl)oxy]-2,3-dihydroxypropyl}-4-{[amino(imino)methyl]amino}-3,4-dihydro-2H-pyran-6-carboxylic Acid bis TFA Salt] | 0.003 | 0.00023 | – | 0.52 | 0.45 | 0.08 | >0.100 | 0.006 | concentration at 48 h ([4]; 0.1 mg/kg, Mean (cmpd) ng/g): 1400 ng/g; concentration at 168 h ([4]; 0.1 mg/kg, Mean (cmpd) ng/g): 835 ng/g; EC50 ([5]; H1N1, reduces plaque numbers by 50%, MDCK cells): > 0.001 µg/mL; EC50 [6, 8]: 3.7 ng/mL |
| CCOC(=O)C1=C[C@@H](OC(CC)CC)[C@H](NC(C)=O)[C@@H](N)C1 [Oseltamivir] | 0.23 (≈ 0.736 nM) | 0.032 (≈ 102 nM) | 0.11 (≈ 0.352 nM) | – | – | – | – | 0.7 (≈ 2.24 nM) | EC50 [2, 8]: 0.3 ng/mL (≈ 0.96 nM) |
